{"source": "patent US10918610B2", "about": "“Compounds and methods of promoting myelination” (Case Western Reserve University, priority 2017, dated 2021)", "tested_on": "corpus callosum", "assay": "LPC-induced demyelination in corpus callosum, DTI-MRI fractional anisotropy", "type": "in vivo, Sprague-Dawley male rats", "conditions": "rats, 20 mg/kg intraperitoneal QD", "method": "In total, 30 Sprague-Dawley male rats (˜200-300 g) were infused with lysophosphatidylcholine (LPC) on the ipsilateral side and with vehicle for LPC on the contralateral side of the corpus callosum in order to induce demyelination. […] Cis-N-cyclohexyl-N-ethyl-3-(3-chloro-4-cyclohexylphenyl)prop-2-enylamine was diluted to a final concentration of 2.5% ETOH and 2.5% Kolliphor in Saline. DTI-MRI was used as a primary method to quantify the demyelinated lesion and to assess the organization of white matter in corpus callosum over time, on days 3, 10 and 15. Day 3 served as a baseline followed by repeated analyses during the therapeutic period. On day 15, the animals were euthanized and tissue samples collected. The amount of demyelination and the extent of neuronal loss were analyzed by histological analysis of MBP and Nissl substance, respectively, in corpus callosum.\nDemyelination in corpus callosum was induced by stereotactic infusion of lysophospatidylcholine (LPC, Santa Cruz, Calif., USA) directly to the target tissue. First, rats were anesthetized with 5% isoflurane (in 70% N20 and 30% 02; flow 300 ml/min) and placed in a stereotactic frame. […]\nAnalgesics were administered during and after the surgery. […] Rats were carefully monitored by laboratory personnel twice a day and any rats prematurely fulfilling the criteria for humane end-points were euthanized during the study. […]"}
{"compound": "CCN(C/C=C\\c1ccc(C2CCCCC2)c(Cl)c1)C1CCCCC1", "note": "[Cis-N-cyclohexyl-N-ethyl-3-(3-chloro-4-cyclohexylphenyl)prop-2-enylamine]", "values": [{"measurement": "ipsilateral FA measurements, difference between the groups at Day 15", "setting": "Day 15", "result": "trend in improvement"}, {"measurement": "fractional anisotropy (FA) value of the ipsilateral side (FIG. 8B)", "setting": "days 3-15 after LPC infusion, versus vehicle", "result": "noticeable recovery of the FA value"}]}
